{
  "source": "patent US7691849B2",
  "about": "“Carboxamidine derivatives and their use in the treatment of vascular diseases” (CytRx Corporation, priority 2002, dated 2010)",
  "key": {"[1]": {"test_system": "human umbilical vein endothelial cells (HUVEC)", "assay": "Wounding migration assay in endothelial cell culture", "format": "cell-based", "conditions": "wounded HUVEC monolayer, 24 hours after wounding, active agent 10^-6 M", "from_the_text": "The following compounds of the Invention are especially preferable: • 1. N-[3-(1-piperidinyl)propoxy]-pyridin-1-oxide-3-carboxamidine • 2. N-[3-(1-piperidinyl)propoxy]-pyridin-1-oxide-3-carboximidoyl chloride • 3. N-[2-hydroxy-3-(1-piperidinyl)propoxy]-N′-n-butyl-pyridin-1-oxide-4-carboxamidine • 4. N-[3-(1-oxido-1-piperidinyl)propoxy]-3-nitro-benzimidoyl-chloride dihydrate • 5. 2-chloro-N-[3-(4-oxido-4-morpholinyl)propoxy]-benzimidoyl chloride • 6. (R,S)-5,6-dihydro-5-[(1-piperidinyl)methyl]-3-(1-oxido-3-pyridyl)-4H-1,2,4-oxadiazine • 7. 5,6-dihydro-5-[(4-benzyl-1-piperidinyl)methyl]-3-(3-pyridyl)-4H-1,2,4-oxadiazine • 8. (R) or (S)-5,6-dihydro-5-[(2-oxo-1-piperidinyl)methyl]-3-(3-pyridyl)-4H-1,2,4-oxadiazine • 9. (+)-5,6-dihydro-5-[(1-piperidlnyl)methyl]-3-(1-oxido-3-pyridyl)4H-1,2,4-oxadiazine • 10. (R) or (S)-5,6-dihydro-5-[(1-oxido-1-piperidinyl)methyl]-3-(1-oxido-3-pyridyl)-4H-1,2,4-oxadiazine • 11. 5.6-dihydro-5-[(4-hydroxy-1-piperidinyl)methyl]-3-(3-pyridyl)-4H-1,2,4-oxadiazine • 12. N-[2-chloro-3-(1-piperidinly)propoxyl]-benzimidoyl chloride hydrochloride • 13. N-[2-hydroxy-3-(1-piperidinyl)propoxy]-pyridin-1-oxide-3-carboxamide • The biological effects of the compounds of the invention were tested by the following experiments: • Wounding migration assay in endothelial cell culture\nThe effect of the compounds of the invention on the wounded monolayers of human umbilical vein endothelial cells (HUVEC) were studied in a cell culture system (in vitro). After reaching confluence, the HUVEC cells were wounded according to the method of Yamamura et al (J. Surgical Res. 63, 349-354, 1996). The number of migrated cells were registered using computerized image analysis 24 hours after wounding in the absence and presence of the active agents under testing in a concentration of 10^−6 M. The active ingredient described in publication no. WO 98/06400, namely 5,6-dihydro-5-(1-piperidinyl)-methyl-3-(3-pyridyl)-4H-1,2,4-oxadiazine was used as reference compound."}, "[2]": {"test_system": "thoracic aorta of SH rats", "assay": "Vaso-relaxing effect on the thoracic aorta of SH rats treated for one month (in vitro testing of aorta rings)", "format": "in vivo, rat", "conditions": "aorta rings contracted with 10^-6 M methoxamine", "procedure": "In the following, we give the results of the test of blood vessel relaxing effect, performed in vitro on rat vessels, and also the morpholocial results of the thoracic aorta.\n(§1) Three-month-old, genetically hypertonic (SH) Wistar Okamoto rats were treated for one month with various test compounds. Thereafter the functional and morphological tests were performed.\nThe Vaso-relaxing Effect of the Compounds of the Invention on the Thoracic Aorta of SH Rats (in Vitro Testing)\nThe test was performed by the method known from the literature [Japan J. Pharmacol., 59, 339-347 (1992)]. The SH rats were anesthetized with Nembutal (40 mg/kg, i. p.), then the thoracic aorta was removed and placed in oxygenized (95% O2+5% CO2) Krebs-Henseleit solution. The composition of the solution (mM): NaCl 118, KCl 4,7, CaCl2 2,52, MgSO4 1,64, NaHCO3 24,88, KH2PO4 1,18, glucose 5,5. The 3-mm-long aorta rings were suspended in a 20 ml organ bath of 37° C. The resting tension was 1 g, which was maintained throughout the equilibration. During the 1 hour equilibration, the medium was changed in every 20 minutes. The vessels were contracted with 10^−6 M methoxamine (approx. 80% of maximal contraction). After reaching the maximal contraction, we tested the vasodilation resulting as the effect of the acetylcholine (Ach) (10^−6-10^−4 M), which informed us about the condition of the endothelium of the vessel wall. The contraction force was measured by an isometric strain gauge (SG-01D, Experimentia Ltd), and was registered on an OH-850 polygraph (Radelkis). At this time again, 5,6-dihydro-5-(1-piperidinyi)-methyl-3-(3-pyridyl)-4H-1,2,4-oxadiazine as described in WO 98/06400 was used as a reference compound."}, "[3]": {"test_system": "thoracic aorta of SH rats", "assay": "Morphological testing of the thoracic aortas with electron microscopy", "format": "in vivo, rat", "parameters": "key: 1 was used to refer to cases where no regeneration was observable; 2 refers to weak; 3 to average; 4 to good; 5 to strong regeneration", "conditions": "SH rats treated one month, scale of 1 to 5, electron microscopy of thoracic aorta", "procedure": "as §1\nMorphological Testing of the Thoracic Aortas with Electron Microscopy\nThe test was performed according to the procedure known from the literature (Br. J. of Pharmacol., 1995; 115, 415-420). 1 mm^2 pieces of the aorta wall was cut out of the thoracic aorta of the rats, and were then fixed with 2.5% glutaraldehyde at room temperature for 2 hours. This was followed by a post-fixation with 1% osmium tetroxide for 1 hour. Afterwards, the tissue pieces were dehydrated with ethanol, and embedded in Durcupan ACM. The samples were evaluated qualitatively based on the images recorded on a Hitachi 7100 electron microscope.\nOn the scale, 1 was used to refer to cases where no regeneration was observable, 2 refers to weak, 3 to average, 4 to good, and 5 to strong regeneration."}},
  "data": [
    {"smiles": "O.O.O=[N+]([O-])c1cccc(C(Cl)=NOCCC[N+]2([O-])CCCCC2)c1", "note": "[Compound 4, N-[3-(1-oxido-1-piperidinyl)propoxy]-3-nitro-benzimidoyl-chloride dihydrate]", "values": [
      {"measurement": "number of migrated cells", "setting": "[1]", "value": 45, "unit": "cell/mm^2"},
      {"measurement": "vessel relaxing effect (vasodilation by acetylcholine)", "setting": "[2]; Ach 10^-4 M, 5 mg/kg", "value": 88.1},
      {"measurement": "vessel relaxing effect (vasodilation by acetylcholine)", "setting": "[2]; Ach 10^-5 M, 5 mg/kg", "value": 84.9},
      {"measurement": "vessel relaxing effect (vasodilation by acetylcholine)", "setting": "[2]; Ach 10^-6 M, 5 mg/kg", "value": 82.5},
      {"measurement": "Degree of regeneration", "setting": "[3]; 20 mg/kg p.o.", "value": 5}
    ]},
    {"smiles": "[O-][n+]1cccc(C2=NOCC(CN3CCCCC3)N2)c1", "note": "(single isomer, unassigned; (+)) [Compound 9, (+)-5,6-dihydro-5-[(1-piperidinyl)methyl]-3-(1-oxido-3-pyridyl)-4H-1,2,4-oxadiazine]", "values": [
      {"measurement": "number of migrated cells", "setting": "[1]", "value": 52, "unit": "cell/mm^2"},
      {"measurement": "vessel relaxing effect (vasodilation by acetylcholine)", "setting": "[2]; Ach 10^-4 M, 5 mg/kg", "value": 93.2},
      {"measurement": "vessel relaxing effect (vasodilation by acetylcholine)", "setting": "[2]; Ach 10^-5 M, 5 mg/kg", "value": 87.9},
      {"measurement": "vessel relaxing effect (vasodilation by acetylcholine)", "setting": "[2]; Ach 10^-6 M, 5 mg/kg", "value": 87.0},
      {"measurement": "Degree of regeneration", "setting": "[3]; 5 mg/kg p.o.", "value": 5}
    ]},
    {"smiles": "OC1CCN(CC2CON=C(c3cccnc3)N2)CC1", "note": "(stereo not shown) [Compound 11, 5.6-dihydro-5-[(4-hydroxy-1-piperidinyl)methyl]-3-(3-pyridyl)-4H-1,2,4-oxadiazine]", "values": [
      {"measurement": "number of migrated cells", "setting": "[1]", "value": 51, "unit": "cell/mm^2"},
      {"measurement": "vessel relaxing effect (vasodilation by acetylcholine)", "setting": "[2]; Ach 10^-4 M, 10 mg/kg", "value": 86.0},
      {"measurement": "vessel relaxing effect (vasodilation by acetylcholine)", "setting": "[2]; Ach 10^-5 M, 10 mg/kg", "value": 85.1},
      {"measurement": "vessel relaxing effect (vasodilation by acetylcholine)", "setting": "[2]; Ach 10^-6 M, 10 mg/kg", "value": 79.7},
      {"measurement": "Degree of regeneration", "setting": "[3]; 10 mg/kg p.o.", "value": 4}
    ]},
    {"smiles": "c1cncc(C2=NOCC(CN3CCCCC3)N2)c1", "note": "(stereo not shown) [Reference, 5,6-dihydro-5-(1-piperidinyl)-methyl-3-(3-pyridyl)-4H-1,2,4-oxadiazine, reference compound]", "values": [
      {"measurement": "number of migrated cells", "setting": "[1]", "value": 30, "unit": "cell/mm^2"},
      {"measurement": "vessel relaxing effect (vasodilation by acetylcholine)", "setting": "[2]; Ach 10^-4 M, 20 mg/kg", "value": 81.7},
      {"measurement": "vessel relaxing effect (vasodilation by acetylcholine)", "setting": "[2]; Ach 10^-5 M, 20 mg/kg", "value": 80.2},
      {"measurement": "vessel relaxing effect (vasodilation by acetylcholine)", "setting": "[2]; Ach 10^-6 M, 20 mg/kg", "value": 77.4}
    ]},
    {"smiles": "Cl.ClC(=NOCC(Cl)CN1CCCCC1)c1ccccc1", "note": "(stereo not shown) [Compound 12, N-[2-chloro-3-(1-piperidinly)propoxyl]-benzimidoyl chloride hydrochloride]", "values": [
      {"measurement": "number of migrated cells", "setting": "[1]", "value": 60, "unit": "cell/mm^2"},
      {"measurement": "vessel relaxing effect (vasodilation by acetylcholine)", "setting": "[2]; Ach 10^-4 M, 20 mg/kg", "value": 80.4},
      {"measurement": "vessel relaxing effect (vasodilation by acetylcholine)", "setting": "[2]; Ach 10^-5 M, 20 mg/kg", "value": 83.5},
      {"measurement": "vessel relaxing effect (vasodilation by acetylcholine)", "setting": "[2]; Ach 10^-6 M, 20 mg/kg", "value": 82.3},
      {"measurement": "Degree of regeneration", "setting": "[3]; 20 mg/kg p.o.", "value": 3}
    ]},
    {"smiles": "O=C(NOCC(O)CN1CCCCC1)c1ccc[n+]([O-])c1", "note": "(stereo not shown) [Compound 13, N-[2-hydroxy-3-(1-piperidinyl)propoxy]-pyridin-1-oxide-3-carboxamide]", "values": [
      {"measurement": "number of migrated cells", "setting": "[1]", "value": 54, "unit": "cell/mm^2"},
      {"measurement": "vessel relaxing effect (vasodilation by acetylcholine)", "setting": "[2]; Ach 10^-4 M, dose not given", "value": 95.2},
      {"measurement": "vessel relaxing effect (vasodilation by acetylcholine)", "setting": "[2]; Ach 10^-5 M, dose not given", "value": 90.3},
      {"measurement": "vessel relaxing effect (vasodilation by acetylcholine)", "setting": "[2]; Ach 10^-6 M, dose not given", "value": 88.4},
      {"measurement": "Degree of regeneration", "setting": "[3]; 20 mg/kg p.o.", "value": 4}
    ]},
    {"smiles": "O=C1CCCCN1CC1CON=C(c2cccnc2)N1", "note": "(single isomer, unassigned) [Compound 8, (R) or (S)-5,6-dihydro-5-[(2-oxo-1-piperidinyl)methyl]-3-(3-pyridyl)-4H-1,2,4-oxadiazine]", "values": [
      {"measurement": "number of migrated cells", "setting": "[1]", "value": 48, "unit": "cell/mm^2"},
      {"measurement": "vessel relaxing effect (vasodilation by acetylcholine)", "setting": "[2]; Ach 10^-4 M, 20 mg/kg", "value": 89.2},
      {"measurement": "vessel relaxing effect (vasodilation by acetylcholine)", "setting": "[2]; Ach 10^-5 M, 20 mg/kg", "value": 88.0},
      {"measurement": "vessel relaxing effect (vasodilation by acetylcholine)", "setting": "[2]; Ach 10^-6 M, 20 mg/kg", "value": 80.3},
      {"measurement": "Degree of regeneration", "setting": "[3]; 5 mg/kg p.o.", "value": 5}
    ]}
  ]
}
